From patent US20110021471A1, “REDUCING Abeta42 LEVELS AND Abeta AGGREGATION” (priority 2007, published 2011)
Read-outs that look alike come from different tables or passages of the source.

How the values were obtained:
human H4 cells = assay: Steroid compounds, Aβ42 levels in human H4 cells (FIG. 2, FIG. 21); type: cell-based
Text: FIG. 21 contains the results of an in vitro assay, studying the effects of various steroid compounds on Aβ42 levels in human H4 cells. Chemical names and molecular weights of each steroid are presented.
Agents having the ability to modulate Aβ42 levels were identified as follows. […] It was hypothesized that it might be possible to convert Aβ42 increasing agents into Aβ42 reducing agents by incorporating an acidic group into the core structure. For steroids, multiple steroids containing an acidic group were obtained from Steraloids Inc. and screened for the ability to reduce Aβ42 levels.

APP-NOTCH TMD cells = assay: Aβ modulation in APP-NOTCH TMD cells; type: cell-based, human; set-up: Aβ42 signal (percentage of control) / Aβ40 signal (percentage of control): dose or concentration left out as unconfirmed
Experimental: (§1) (A) and (B) The sequences of wildtype (WT; A) APP and the mutated substrate (B) containing the homologous region (italic, underlined) of the NOTCH transmembrane domain (TMD) in APP where GSMs are hypothesized to bind. […] Bottom row, FT-1 ([…]) raised Aβ42 200% in APP wild-type cells (A); however, in APP-NOTCH TMD cells (B), FT-1 caused minimal changes in the Aβ42 (95%) or Aβ40 (90%) signal. Data are presented as amyloid-β percentage of control±s.e.m., n=3.
(§2) FIG. 19. Substitution of human Notch sequence in the APP transmembrane domain (TMD) changes sensitivity to modulation. (A) Site-directed mutagenesis was used to exchange the analogous region of the human Notch TMD (bold and underlined) for a section (bold and underlined) of wild-type APP (APPwt) we have shown to be labeled by GSMs. The new substrate (APP-Notch TMD) is cleaved by γ-secretase primarily after valine and alanine residues corresponding to 40 and 42 in APPwt (arrows). […] The beginning (1) N-terminal amino acid (AA) to the ending C-terminal AA is shown above each peak, with the molecular weight (m/z) below. 1-40 and 1-42 are detected as the two major species in APP-Notch TMD conditioned media. It should be noted that the mutagenesis strategy to create APPNotch TMD led to a single AA deletion relative to APPwt. The correct change in molecular weight caused by the introduced mutations were confirmed by the mass spectrum. For simplicity the peptides are referenced by their C-terminal residues relative to Aβ (40, 42, etc). Representative mass spectra are shown from multiple IP reactions (3) and duplicate spots. […] Both cell lines were treated (6 hours) with L-685,458 (10 μM), which is hypothesized to target the active site aspartate residues, media was collected, and analyzed for changes in Aβ levels. The 40 and 42 Aβ reactive species from both cell lines were inhibited by L-685,458 with equal sensitivity (no significant difference; 40 p>0.5; 42 p>0.4; t test; n=3).
To test the hypothesis that mutation of the GSM binding site in APP should alter sensitivity to GSMs, a portion of the GSM binding site in APP was exchanged with the analogous region of human NOTCH (FIGS. 18A and 18B; FIG. 19). The chimeric construct was used because the NOTCH transmembrane domain (TMD) appears resistant to GSM effects. The APP NOTCH TMD construct produced a spectrum of chimeric amyloid-β species in conditioned cell media (FIG. 19). Although the molecular weight and abundance of each chimeric peptide differed from amyloid-β peptides from APP, the main species produced from the APP-NOTCH TMD construct had identical C-termini to Ab1-40 and Ab1-42, and could be quantified by enzyme-linked immunosorbent assays (ELISAs; FIG. 19). The relative sensitivity to GSMs of APP-NOTCH TMD versus APP was assayed in stably transfected cells. […]

[1] = system: 7PA2 cells (CHO cells stably expressing human APP751 V717F); assay: 7PA2 cells: Aβ oligomers (IP/western) and Aβ ELISA; type: cell-based, Chinese hamster; settings: for naturally secreted oligomer formation: 50 μM, IP Western blotting; for Aβ42 production in 7PA2 cells / dimeric and trimeric Aβ species: FT-9 and FT-1 20 μM, fenofibrate 100 μM, ~16 hours
Experimental: FIG. 17. γ-secretase modulators decrease the production of cell derived Aβ oligomers. CHO cells stably expressing human APP751 containing the familial Alzheimer's disease mutation V717F (referred to as 7PA2 cells) were incubated for ˜16 hours in the presence of GSMs. […] Aβ40 levels were decreased to varying degrees (26-35%; Li-Cor Odyssey). (B) and (C) Because the extended incubation times necessary to reliably detect Aβ oligomers in this assay can be toxic, we carried out additional dose response studies with fenofibrate and FT-9 to verify that decreases in Aβ oligomers levels were not related to toxicity or global inhibition of Aβ production. […] (C) Increasing doses of FT-9 reduced the detection of Aβ oligomeric bands and Aβ42 decreased preferentially with decreases in Aβ40 at higher doses. […] Aβ species present in conditioned medium were detected by IP using the polyclonal anti-Aβ antibody, DW6 and subsequent immunoblotting with either 6E10 or the 42-specific, anti-Aβ antibody 21F12. Aβ levels in the samples analyzed via IP/western were also quantified via sandwich ELISA. Data presented as percent vehicle control±s.e.m., n=2.
To address the question of whether GSMs influence the concentration of secreted amyloid-β oligomers, such as those released by Chinese hamster ovary (CHO) cells expressing the APP V717F mutation (referred to as 7PA2 cells), which alter long-term potentiation and perturb the memory of learned behavior when injected into rat brain, 7PA2 cells were treated with two Aβ42-raising GSMs and a novel Aβ42-lowering GSM (FIG. 17) (Walsh et al., Nature 416:535:539 (2002); Calabrese et al., Mol. Cell. Neurosci. 35:183-193 (2007)). Fenofibrate and FT-1 increased amounts of Aβ42 whereas FT-9 lowered Aβ42, but all three GSMs decreased amounts of amyloid-β dimers and trimers. […] In contrast to increased amyloid-β oligomer formation, when CHO cells are genetically manipulated to increase Aβ42 production by co-expression of APP and FAD-linked mutant PSEN1 proteins, both Aβ42-lowering and -raising GSMs decreased oligomer formation (Xia et al., J. Biol. Chem. 272: 7977-7982 (1997)).

APP wild-type cells = assay: Aβ modulation in APP wild-type cells; type: cell-based; set-up: Aβ42 raised: dose or concentration left out as unconfirmed
Experimental: as §1
as §2, with “APPwt.” for “APPwt. The correct change in molecular weight caused by the introduced mutations were confirmed by the mass spectrum. For simplicity the peptides are referenced by their C-terminal residues relative to Aβ (40, 42, etc). Representative mass spectra are shown from multiple IP reactions (3) and duplicate spots.”, “The 40 and 42 Aβ reactive species from both cell lines were inhibited by L-685,458 with equal sensitivity (no significant difference; 40 p>0.5; 42 p>0.4; t test; n=3).” left out
To test the hypothesis that mutation of the GSM binding site in APP should alter sensitivity to GSMs, a portion of the GSM binding site in APP was exchanged with the analogous region of human NOTCH (FIGS. 18A and 18B; FIG. 19). […] Although the molecular weight and abundance of each chimeric peptide differed from amyloid-β peptides from APP, the main species produced from the APP-NOTCH TMD construct had identical C-termini to Ab1-40 and Ab1-42, and could be quantified by enzyme-linked immunosorbent assays (ELISAs; FIG. 19). […]

Aβ42 = Aβ42 (Homo sapiens, UniProt P05067); assay: Aβ42 aggregation in vitro (native gel electrophoresis); type: biochemical; settings: 1 μM, 37° C.
Experimental: (§3) FIG. 2. Aβ modulating agents can inhibit Aβ aggregation, and agents that bind Aβ amyloid can modulate Aβ42 production. […] (C) Aβ42 modulating agents inhibit naturally secreted oligomer formation. 7PA2 cells were treated with fenofibrate, FT-1, or FT-9 at 50 μM and oligomers assessed by IP Western blotting. […] (D) FT-9, an Aβ42 reducing agent, can inhibit Aβ42 aggregation in vitro.

Tg2576 mice = assay: Acute oral dosing of Tg2576 mice, brain soluble Aβ after 4 hours; type: in vivo, mouse
Experimental: as §3
FIG. 13. Compounds that bind Aβ are GSMs in vitro and in vivo. (A) A cell-based screen of Aβ-binders identified molecules that increase Aβ42 (DAPH) or decrease Aβ42 (Bis-ANS, X-34 or chrysamine G (CG)). Data are mean±s.e.m., n=3. (B) X-34 is an Aβ42-lowering GSM. Changes in amyloid-β peptide amounts after X-34 treatment are shown. Data are presented as percentage control±s.e.m., n=3. EC50 values were calculated. […] NA, not applicable. (C) X-34 binds to APP(C100)-Flag and decreases labeling by GSM photoprobes. Biotin incorporation into APP by Fen-B and Flurbi-BpB is presented as percentage of control (peptide without X-34)±s.e.m., n=2. (D) X-34 lowers Aβ42 in Tg2576 mice after 4 h. […] Data are presented as amyloid-β percentage of control relative to vehicle±s.e.m. Animals per group (n). Asterisk, P,0.05; two asterisks, P,0.01; ANOVA with Dunnett's post-hoc analysis.
Finally, X-34 was tested for its ability to modulate Aβ42 amounts in an APP transgenic mouse (Tg2576).

H4Bri-C99 (CTF-3) = settings: 6 hours
Experimental: FIG. 6. […] Parent GSMs and biotin tagged photoactivatable GSMs were evaluated for their effects on Aβ secreted from H4Bri-C99 (CTF-3). Cells were treated with compounds for 6 hours and Aβ measured by ELISA. […] Changes in Aβ (percent control)±s.e.m., n=3.
Photoaffinity labelling. All experiments used the following general protocol. Samples (recombinant or synthetic peptides, cell lysates and membrane preparations) were exposed in borosilicate test tubes to ultraviolet light (350 nm) in a Rayonet Photoreactor R100 (RPR-3500 lamps, Southern New England Ultra Violet Company) in a cold room (4° C.) for 30 minutes or as otherwise noted. Crosslinked samples were analyzed by ELISA for biotin incorporation, or analyzed directly by SDS-PAGE (Criterion-XT, Bio-Rad), or after precipitation with streptavidin ultralink plus beads (Pierce). After immunblotting, proteins were detected using chemiluminesence (ECL Plus, GEHealthcare) or near-infrared fluorescence (LiCor Odyssey). Full-length APP and APP CTFs (CTF83, CTF99) were detected with CT20, a rabbit polyclonal antibody against the C-terminus of APP. Biotin was detected with an affinity-purified rabbit polyclonal antibody (Bethyl). Cell-based screens for amyloid-β modulation. Human H4 neuroglioma cells (American Type Culture Collection, ATCC) expressing wild-type APP695 protein or CTF105 fused to secreted alkaline phosphatase which is efficiently processed to APP CTFs (CTF83, CTF99) and produce high levels of amyloid-β, were used for the cell-based screens as previously described. Cells were incubated for 5-6 hours in the presence of the various compounds in Opti-Mem culture medium containing 1% fetal bovine serum. Compounds were dissolved in dimethylsulphoxide (DMSO; 0.5% final concentration) and diluted 200-fold. Media was analyzed for various amyloid-β species (40, 42 and total) using ELISAs as described herein. The EC50 values for changes in amyloid-β species were calculated by fitting sigmoid dose-response curves using nonlinear regression in Prism (GraphPad) and are shown as values±s.e.m. Statistical analysis. Data are presented as either percentage control or mean±s.e.m. Results were analyzed using Prism (Graph Pad) with t-tests or one-way analysis of variance analyses (ANOVAs) with Dunnett's post-hoc correction for comparison of multiple samples to a control. Statistical significance is shown as P,0.05 (one asterisk), P,0.01 (two asterisks) or P,0.001 (three asterisks).

Sequence of Aβ42 (P05067 672-713 limits assumed): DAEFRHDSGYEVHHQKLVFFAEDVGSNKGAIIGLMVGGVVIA

Compound: C[C@H](CCC(=O)O)[C@H]1CC[C@H]2[C@@H]3[C@H](O)C[C@@H]4C[C@H](O)CC[C@]4(C)[C@H]3CC[C@]12C [5β cholanic acid 3a, 7a diol]
- Aβ42 levels (acidic steroids) (human H4 cells): does not

Compound: C[C@H](CCC(=O)O)[C@H]1CC[C@H]2[C@@H]3CC[C@@H]4CCCC[C@]4(C)[C@H]3CC[C@]12C [5β-cholanic acid]
- Aβ42 levels (acidic steroids) (human H4 cells): one of the more potent Aβ42 reducing agents
- Aβ42 levels (acidic steroids) (human H4 cells; listed as 5-β-cholanic acid): most potent Aβ42 lowering GSM
- Aβ42 levels (acidic steroids) (human H4 cells; listed as 5β-Cholanic acid): potently reduces Aβ42

Compound: CC(C#N)c1ccc([N+](=O)[O-])c(Oc2cc(Cl)cc(Cl)c2)c1 (stereo not drawn) [FT-1, 2-(3-(3,5-dichlorophenoxy)-4-nitrophenyl)propanenitrile]
- Aβ40 signal (percentage of control) (APP-NOTCH TMD cells; APP-NOTCH TMD cells): 90%
- Aβ42 signal (percentage of control) (APP-NOTCH TMD cells; APP-NOTCH TMD cells): 95%
- naturally secreted oligomer formation [1]: inhibit oligomer formation
- Aβ42 production in 7PA2 cells [1]: increase production of Aβ42
- dimeric and trimeric Aβ species [1]: reduce production of dimeric and trimeric Aβ species
- Aβ42 raised (APP wild-type cells; APP wild-type cells): 200%

Compound: CC(C(=O)O)c1cccc(Oc2cc(Cl)cc(Cl)c2)c1 (stereo not drawn) [FT-9, 2-(3-(3,5-dichlorophenoxy)phenyl)propanoic acid]
- Aβ42 aggregation in vitro (Aβ42): inhibits Aβ42 aggregation
- total Aβ (ELISA) in dose response studies [1]: did not decrease
- naturally secreted oligomer formation [1]: inhibit oligomer formation
- Aβ42 production in 7PA2 cells [1]: lowers Aβ42
- dimeric and trimeric Aβ species [1]: reduce production of dimeric and trimeric Aβ species

Compound: CC(C)C[C@H](NC(=O)[C@H](Cc1ccccc1)C[C@@H](O)[C@H](Cc1ccccc1)NC(=O)OC(C)(C)C)C(=O)N[C@@H](Cc1ccccc1)C(N)=O [L-685,458]
- 40 and 42 Aβ reactive species (APP-NOTCH TMD cells; 10 μM, 6 hours, APP-Notch TMD): inhibited
- 40 and 42 Aβ reactive species (APP wild-type cells; 10 μM, 6 hours, APPwt): inhibited

Compound: C[C@H](NC(=O)[C@@H](O)c1cc(F)cc(F)c1)C(=O)N[C@@H]1C(=O)N(C)c2ccccc2-c2ccccc21 [LY-411575]
- selectivity of Aβ reduction (Aβ42 vs Aβ40) (Tg2576 mice; Tg2576, oral gavage, 4 hours): reduces Aβ40 preferentially

Compound: C[C@@H](C(=O)O)c1ccc(-c2ccccc2)c(F)c1 [Tarenflurbil]
- Aβ42 (direction of change) (H4Bri-C99 (CTF-3)): lowered Aβ42
- total Aβ levels (H4Bri-C99 (CTF-3)): without decreasing total Aβ levels
- lowering of Aβ42 in the brains (Tg2576 mice; 50 mg kg21, Tg2576 mice, 4 h): 25%
